Earlier results on one molecule are cited in patent US20200319065A1, “STABLE DITHIZONE SOLUTIONS AND FORMULATIONS AND METHODS FOR THEIR USE” (CITY OF HOPE, priority 2019, published 2020).

The structures appear in SMILES notation.

Consider `S=C(N=Nc1ccccc1)NNc1ccccc1` [DTZ, Dithizone], for which the “solubility in organic solvents” value (ethanol, chloroform and DMSO) is given as “solubilizes partially”. The solubility in water result (water) is recorded as “relatively insoluble”.
